According to EP2865421A1, “Bitter taste receptor agonists for topical use” (Albert-Ludwigs-Universität Freiburg, priority 2013, dated 2015):

Tests used:
T2R38 = target: T1, T2R38 (Homo sapiens, UniProt P59533, A49P/I296V); assay: PTC-induced calcium influx in taster cell line JEG-3 and its inhibition by probenecid; type: cell-based
T1 construct: endogenous in cells; host or cells: JEG-3 (human placental cell line)
T1 sequence (P59533 1-333 A49P/I296V): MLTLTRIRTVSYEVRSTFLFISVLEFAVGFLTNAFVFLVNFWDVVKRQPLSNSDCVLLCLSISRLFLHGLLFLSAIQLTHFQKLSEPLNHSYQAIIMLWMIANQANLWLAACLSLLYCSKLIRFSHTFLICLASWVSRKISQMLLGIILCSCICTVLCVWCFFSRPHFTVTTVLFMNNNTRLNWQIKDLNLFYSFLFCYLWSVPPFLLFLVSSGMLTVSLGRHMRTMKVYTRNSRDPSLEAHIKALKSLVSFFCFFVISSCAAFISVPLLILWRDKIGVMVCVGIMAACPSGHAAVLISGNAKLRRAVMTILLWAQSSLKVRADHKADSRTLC
Procedure: Intracellular Ca^2+ concentration measurements in single cells were carried out using the fluorescence indicator fura-2-am (Invitrogen). Cells were washed with a buffer containing 130 mM NaCl, 5 mM KCI, 10 mM HEPES, 10 mM Glucose and 1 mM CaCl2 adjusted to pH 7.4 and loaded with 2 µM fura-2-am and 0.04% Pluronic F-127 (Invitrogen) for 30 min. After rinsing twice, cells were allowed to de-esterify fura-2-am for 30 min. Measurements were performed with a monochromator-based imaging system attached to an inverted microscope (Axiovert S100, Zeiss). Fluorescence was excited at 340 and 380 nm and emission measured at 510 nm. After 60s, cells were stimulated with various concentrations of diphenidol or amarogentin, 100 µM PTC or the respective solvent control. T2R38 receptor inhibition was performed by pre-incubation of JEG-3 cells for 1h with the T2R38 antagonist probenecid (1 mM) before PTC stimulation. After correction of background fluorescence, the fluorescence ratio was calculated using Axiovision software.

LAD-2 cells = type: cell-based, human
Procedure: (§3) The method is based on the bioluminescence measurement of ATP that is present in metabolically active cells. Luciferase catalyzes the formation of light from ATP and luciferin. The emitted light intensity is directly proportional to the ATP concentration and is measured using a luminometer (Sirius HT; MWG).

LAD-2 human mast cells [1] = assay: Degranulation assay: histamine release from SP-stimulated LAD-2 mast cells (ELISA); type: cell-based; conditions: SP 2 µM, 1 h, 30 min pre-incubation, amarogentin 136 µM, azelastine 24 µM (Figure 14A)
Procedure: (§1) LAD-2 human mast cells (obtained from Dr. A. Kirshenbaum NIH) were cultured in serum-free media (StemPro-34, Gibco, Germany) supplemented with 2mM L-glutamine and 100 ng/ml rhSCF (recombinant human stem cell factor; Cell signaling technologies). The human keratinocyte cell line HaCaT was cultured in Dulbecco's modified essential medium (DMEM; Invitrogen) containing 10% fetal calf serum (FCS; PAA, Pasching, Austria) at 37 °C in a humidified atmosphere with 5% CO2. LAD-2 cells were washed with PBS and resuspended in complete medium. LAD-2 cells (2x10^5 cells /400 µl/well) were plated in 48 well flat bottom Falcon cell culture plates from Becton Dickinson and then stimulated with SP (2 µM, Sigma-Aldrich) for 1 or 24 h. Some cells were pre-incubated for 30 min with amarogentin (136 µM, Phytolab), diphenidol (136 µM, Santa Cruz) or azelastine (24 µM, Sigma) as indicated. The supernatants were collected for further assays. Mast cell degranulation was assessed by measuring histamine in the supernatant fluid 1 h after cell stimulation with SP (2 µM). Histamine levels were assayed using a Histamine ELISA from IBL international.

LAD-2 human mast cells [2] = assay: TNF-α release from SP-stimulated LAD-2 mast cells (ELISA); type: cell-based; conditions: SP 2 µM, 24 h, 30 min pre-incubation, amarogentin 136 µM, diphenidol 136 µM, azelastine 24 µM (Figure 14B)
Procedure: as §1, with “assays. TNF-α, IL-6, IL-8 and MMP-1 release into” for “assays. Mast cell degranulation was assessed by measuring histamine in”, “fluid 24” for “fluid 1”, “stimulation (either LAD-2 oder HaCaT cells)” for “stimulation with SP (2 µM). Histamine levels”, “were measured by Enzyme-Linked Immunosorbent Assay (ELISA)” for “were assayed”, “a commercial kit” for “a Histamine ELISA”, “from R&D Systems according to the manual instructions.” for “from IBL international.”

[3] = system: keratinocyte cell line HaCaT; assay: IL-6 and MMP-1 release from HaCaT stimulated with histamine and IFN-γ (ELISA); type: cell-based, human; conditions: histamine + IFN-γ (200U/ml), 24 h, amarogentin 136 µM, azelastine 24 µM (Figure 15B)
Procedure: The Keratinocyte cell line HaCaT (2x10^5 cells /400 µl/well) were plated in 48 well flat bottom Falcon cell culture plates from Becton Dickinson and then stimulated with histamine (100 µl) and TNF-α (25 ng/ml) or IFNγ (200U/ml) for 24 h. Some cells were pre-incubated for 30 min with amarogentin (136 µM, Phytolab), diphenidol (136 µM, Santa Cruz) or azelastine (24 µM, Sigma) as indicated. The supernatants were collected for further assays. TNF-α, IL-6, IL-8 and MMP-1 release into the supernatant fluid 24 h after cell stimulation (either LAD-2 oder HaCaT cells) were measured by Enzyme-Linked Immunosorbent Assay (ELISA) using a commercial kit from R&D Systems according to the manual instructions.

HaCaT keratinocytes = assay: Calcium imaging (fura-2-am) in HaCaT keratinocytes; type: cell-based, human; conditions: for calcium influx: HaCaT cells
Procedure: The human keratinocyte cell line HaCaT, the neuroblastoma cell line SH-SY5Y and the placental cell line JEG-3 were from CLS Cell Lines Service (Heidelberg, Germany) and cultured in Dulbecco's modified essential medium (DMEM; Invitrogen) containing 10% fetal calf serum (FCS; PAA, Pasching, Austria) at 37 °C in a humidified atmosphere with 5% CO2. For double fluorescence stainings the cells were seeded in a four-field chamber slides (Thermo Fisher Scientific GmbH; 1 ×10^5 cells/ml). For calcium imaging experiments, cells were seeded on polylysin (Sigma-Aldrich, Munich, Germany) coated cover slips at a density of 1.5 -2x 10^5. After isolation of human primary keratinocytes (hPK) from skin samples, the cells were incubated for 3 days with calcium (2 mM), amarogentin (100 μM) or diphenidol (100 μM) before RNA isolation and determination of the differentiation markers. Intracellular Ca^2+ concentration measurements in single cells were carried out using the fluorescence indicator fura-2-am (Invitrogen). Cells were washed with a buffer containing 130 mM NaCl, 5 mM KCI, 10 mM HEPES, 10 mM Glucose and 1 mM CaCl2 adjusted to pH 7.4 and loaded with 2 μM fura-2-am and 0.04% Pluronic F-127 (Invitrogen) for 30 min. After rinsing twice, cells were allowed to de-esterify fura-2-am for 30 min. Measurements were performed with a monochromator-based imaging system attached to an inverted microscope (Axiovert S100, Zeiss). Fluorescence was excited at 340 and 380 nm and emission measured at 510 nm. After 60s, cells were stimulated with various concentrations of diphenidol or amarogentin, 100 μM PTC or the respective solvent control. […] receptor inhibition was performed by pre-incubation of JEG-3 cells for 1h with the […] antagonist probenecid (1 mM) before PTC stimulation. After correction of background fluorescence, the fluorescence ratio was calculated using Axiovision software.

[4] = system: SH-SY5Y neuroblastoma cells; assay: Calcium imaging (fura-2-am) in SH-SY5Y neuroblastoma cells; type: cell-based, human; conditions: 100 µM diphenidol, significant, maximum stated for all cell lines (Figure 8)
Procedure: (§2) The human keratinocyte cell line HaCaT, the neuroblastoma cell line SH-SY5Y and the placental cell line JEG-3 were from CLS Cell Lines Service (Heidelberg, Germany) and cultured in Dulbecco's modified essential medium (DMEM; Invitrogen) containing 10% fetal calf serum (FCS; PAA, Pasching, Austria) at 37 °C in a humidified atmosphere with 5% CO2. For double fluorescence stainings the cells were seeded in a four-field chamber slides (Thermo Fisher Scientific GmbH; 1 ×10^5 cells/ml). For calcium imaging experiments, cells were seeded on polylysin (Sigma-Aldrich, Munich, Germany) coated cover slips at a density of 1.5 -2x 10^5. After isolation of human primary keratinocytes (hPK) from skin samples, the cells were incubated for 3 days with calcium (2 mM), amarogentin (100 μM) or diphenidol (100 μM) before RNA isolation and determination of the differentiation markers. Intracellular Ca^2+ concentration measurements in single cells were carried out using the fluorescence indicator fura-2-am (Invitrogen). Cells were washed with a buffer containing 130 mM NaCl, 5 mM KCI, 10 mM HEPES, 10 mM Glucose and 1 mM CaCl2 adjusted to pH 7.4 and loaded with 2 μM fura-2-am and 0.04% Pluronic F-127 (Invitrogen) for 30 min. […] Fluorescence was excited at 340 and 380 nm and emission measured at 510 nm. […] After correction of background fluorescence, the fluorescence ratio was calculated using Axiovision software.

JEG-3 placental cells = assay: Calcium imaging (fura-2-am) in JEG-3 placental cells; type: cell-based, human; conditions: 100 µM diphenidol, significant, maximum stated for all cell lines (Figure 8)
Procedure: as §2

[5] = system: human primary keratinocytes (hPKs); assay: Differentiation marker expression in human primary keratinocytes (RT-PCR); type: cell-based; conditions: 3 days, amarogentin 100 µM, diphenidol 100 µM or calcium 2 mM, vs untreated control (Figure 12)
Procedure: The human keratinocyte cell line HaCaT, the neuroblastoma cell line SH-SY5Y and the placental cell line JEG-3 were from CLS Cell Lines Service (Heidelberg, Germany) and cultured in Dulbecco's modified essential medium (DMEM; Invitrogen) containing 10% fetal calf serum (FCS; PAA, Pasching, Austria) at 37 °C in a humidified atmosphere with 5% CO2. For double fluorescence stainings the cells were seeded in a four-field chamber slides (Thermo Fisher Scientific GmbH; 1 ×10^5 cells/ml). For calcium imaging experiments, cells were seeded on polylysin (Sigma-Aldrich, Munich, Germany) coated cover slips at a density of 1.5 -2x 10^5. After isolation of human primary keratinocytes (hPK) from skin samples, the cells were incubated for 3 days with calcium (2 mM), amarogentin (100 µM) or diphenidol (100 µM) before RNA isolation and determination of the differentiation markers. Reverse transcription PCR was performed as described (Muller et al.,2008). In brief, total RNA was isolated using the Trizol reagent (Invitrogen) according to the manusfacturer's instruction. […] The PCR primers (20 pmol each) used to amplify keratin 10 (KRT10), INV, TGM and ß-actine were already published (Muller et al., 2008). ß-actine was used as internal loading control. After gel electrophoresis quantification was archived with ImageJ software.

[6] = system: keratinocyte cell line HaCaT; assay: IL-8 and MMP-1 release from HaCaT stimulated with histamine and TNF-α (ELISA); type: cell-based, human; conditions: histamine + TNF-α (25 ng/ml), 24 h, amarogentin 136 µM 30 min pre-incubation (Figure 15A)
Procedure: The Keratinocyte cell line HaCaT (2x10^5 cells /400 µl/well) were plated in 48 well flat bottom Falcon cell culture plates from Becton Dickinson and then stimulated with histamine (100 µl) and TNF-α (25 ng/ml) or IFNγ (200U/ml) for 24 h. Some cells were pre-incubated for 30 min with amarogentin (136 µM, Phytolab), diphenidol (136 µM, Santa Cruz) or azelastine (24 µM, Sigma) as indicated. The supernatants were collected for further assays.
TNF-α, IL-6, IL-8 and MMP-1 release into the supernatant fluid 24 h after cell stimulation (either LAD-2 oder HaCaT cells) were measured by Enzyme-Linked Immunosorbent Assay (ELISA) using a commercial kit from R&D Systems according to the manual instructions.

Procedure for HaCaT cells: as §3

| Molecule | cytotoxicity (LAD-2 cells) | histamine release (LAD-2 human mast cells [1]) | secretion of TNF-α (LAD-2 human mast cells [2]) | IL-6 production [3] | MMP-1 production [3] | expression of the differentiation marker keratin 10, involucrin und transglutaminase [5] | cytotoxicity (HaCaT cells) | further results |
| --- | --- | --- | --- | --- | --- | --- | --- | --- |
| NC(=S)Nc1ccccc1 [PTC, Phenylthiocarbamid] |  |  |  |  |  |  |  | calcium influx (T2R38; PTC 100 µM, JEG-3 cells (PAV taster), vs DMSO 0.05% (Figure 10)): induced calcium influx |
| CN1CCCC(n2nc(Cc3ccc(Cl)cc3)c3ccccc3c2=O)CC1 (stereo not drawn) [azelastine] | no cytotoxicity | inhibits histamine release | blocked the secretion of TNF-α | decreased | decreased |  |  |  |
| OC(CCCN1CCCCC1)(c1ccccc1)c1ccccc1 [diphenidol] |  |  | blocked the secretion of TNF-α |  |  | increased | no cytotoxicity | calcium influx compared to the solvent control (HaCaT keratinocytes; 100 µM diphenidol, HaCaT, significant, maximum stated for all cell lines (Figure 8)): up to 7 fold; calcium influx (HaCaT keratinocytes; diphenidol 30 µM, fura-2 ratio before/after stimulation vs solvent (Figure 11)): significant calcium influx; calcium influx compared to the solvent control [4]: up to 7 fold; calcium influx compared to the solvent control (JEG-3 placental cells): up to 7 fold |
| CCCN(CCC)S(=O)(=O)c1ccc(C(=O)O)cc1 [probenecid] |  |  |  |  |  |  |  | PTC-induced calcium currents (T2R38; 1h pre-incubation with probenecid (1 mM), then PTC 100 µM, JEG-3 cells): reduces PTC-induced calcium currents to solvent level |
| amarogentin | no cytotoxicity | inhibits histamine release | blocked the secretion of TNF-α | decreased | decreased | increased | no cytotoxicity | calcium influx (HaCaT keratinocytes; 100 µM amarogentin, vs 0.1% EtOH (Figure 11)): significant calcium influx; release of IL-8 [6]: reduces the release; release of MMP-1 [6]: reduces the release |
